Calls of active or inactive are those of the source. The calls are words filed in the database; no cut-off is given here.
Columns and labels:
[1] = target: NT-3 growth factor receptor (Homo sapiens) (UniProt Q16288); assay: Inhibition of recombinant human His-tagged NTRK3 (510-825 residues) expressed in baculovirus expression system at 2 uM using Tyr 01 as substrate measured after 1 hr by Z'-LYTE assay relative to control
[2] = target: Angiopoietin-1 receptor (Homo sapiens) (UniProt Q02763); assay: Inhibition of recombinant human GST-tagged TEK (817-1101 residues) expressed in insect cells at 2 uM using […] as substrate measured after 1 hr by Z'-LYTE assay relative to control; details: Insect cell
Sequence of Angiopoietin-1 receptor (Homo sapiens) (Q02763 whole entry, the tested form may be a part): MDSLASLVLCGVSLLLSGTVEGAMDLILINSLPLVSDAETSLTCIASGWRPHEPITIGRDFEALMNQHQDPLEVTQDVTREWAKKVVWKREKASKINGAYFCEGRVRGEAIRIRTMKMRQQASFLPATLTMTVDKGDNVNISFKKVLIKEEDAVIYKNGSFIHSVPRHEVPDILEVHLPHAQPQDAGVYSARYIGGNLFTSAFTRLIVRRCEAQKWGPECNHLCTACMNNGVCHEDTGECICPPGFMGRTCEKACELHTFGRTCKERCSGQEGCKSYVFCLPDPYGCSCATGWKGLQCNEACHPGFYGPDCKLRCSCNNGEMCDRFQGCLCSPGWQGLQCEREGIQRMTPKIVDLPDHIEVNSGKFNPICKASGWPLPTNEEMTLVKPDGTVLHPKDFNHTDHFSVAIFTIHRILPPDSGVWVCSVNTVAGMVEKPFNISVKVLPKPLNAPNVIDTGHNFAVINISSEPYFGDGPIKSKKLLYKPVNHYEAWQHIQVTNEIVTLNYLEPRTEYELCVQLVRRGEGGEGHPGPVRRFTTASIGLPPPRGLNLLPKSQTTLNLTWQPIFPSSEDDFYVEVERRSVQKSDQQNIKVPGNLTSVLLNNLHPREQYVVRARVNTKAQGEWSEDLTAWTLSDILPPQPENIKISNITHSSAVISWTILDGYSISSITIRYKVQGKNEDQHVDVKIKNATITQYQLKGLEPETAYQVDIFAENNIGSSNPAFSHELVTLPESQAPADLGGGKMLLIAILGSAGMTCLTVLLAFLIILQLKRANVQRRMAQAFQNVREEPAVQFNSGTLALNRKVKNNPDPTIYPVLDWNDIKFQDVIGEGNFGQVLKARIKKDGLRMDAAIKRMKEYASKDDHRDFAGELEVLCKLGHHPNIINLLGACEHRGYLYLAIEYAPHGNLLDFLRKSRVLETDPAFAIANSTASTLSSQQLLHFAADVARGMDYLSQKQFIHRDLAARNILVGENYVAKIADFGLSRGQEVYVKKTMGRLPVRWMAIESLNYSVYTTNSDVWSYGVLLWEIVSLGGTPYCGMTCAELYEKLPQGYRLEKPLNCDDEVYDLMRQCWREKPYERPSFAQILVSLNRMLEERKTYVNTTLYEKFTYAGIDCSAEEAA

[3] = target: Tyrosine-protein kinase receptor TYRO3 (Homo sapiens) (UniProt Q06418); assay: Inhibition of recombinant human GST-tagged TYRO3 (451-890 residues) expressed in insect cells at 2 uM using […] as substrate measured after 1 hr by Z'-LYTE assay relative to control; details: Insect cell
[4] = target: Ephrin type-B receptor 4 (Homo sapiens) (UniProt P54760); assay: Inhibition of recombinant human His-tagged EPHB4 (561-987 residues) expressed in baculovirus expression system at 2 uM using Tyr 01 as substrate measured after 1 hr by Z'-LYTE assay relative to control
A498 = assay: Antiproliferative activity against human A498 cells assessed as reduction in cell size at 1 micromol/L incubated for 48 hrs by Flow cytometry analysis relative to control; format: functional; set-up: scale not given: the % may be the effect or the level left; details: dose 1 µmol/L, at 1 µM
MDA-MB-361 = assay: Antiproliferative activity against human MDA-MB-361 cells assessed as cell growth inhibition incubated for 3 days by MTS assay; format: functional, cell-based; details: MDA-MB-361, 72 h
[5] = target: Protein-tyrosine kinase 2-beta (Homo sapiens) (UniProt Q14289); assay: Inhibition of recombinant human full length GST-tagged PTK2B expressed in insect cells at 2 uM using Tyr 01 as substrate measured after 1 hr by Z'-LYTE assay relative to control; details: Insect cell
A549 = assay: Antitumor activity against human A549 cells xenografted in female nude mouse model assessed as suppression in tumor growth at 25 mg/kg, po qd administered as 5 days on/2 days off regimen for 4 cycles relative to control; format: functional; details: time 28 day
[6] = target: Serine/threonine-protein kinase TAO2 (Homo sapiens) (UniProt Q9UL54); assay: Inhibition of recombinant human GST-tagged TAOK2 (1-314 residues) expressed in insect cells at 2 uM using Ser/Thr 07 as substrate measured after 1 hr by Z'-LYTE assay relative to control; details: Insect cell
[7] = target: Serine/threonine-protein kinase D3 (Homo sapiens) (UniProt O94806); assay: Inhibition of recombinant human full length GST-tagged PRKCN expressed in insect cells at 2 uM using Ser/Thr 17 as substrate measured after 1 hr by Z'-LYTE assay relative to control; details: Insect cell
[8] = target: cAMP-dependent protein kinase catalytic subunit alpha (Homo sapiens) (UniProt P17612); assay: Inhibition of recombinant human His-tagged PRKACA (1-351 residues) expressed in E.coli at 2 uM using Ser/Thr 01 as substrate measured after 1 hr by Z'-LYTE assay relative to control
NCI-H1975 = assay: Induction of apoptosis in human NCI-H1975 cells assessed as increase in PARP cleavage at 0.3 to 3 micromol/L incubated for 48 hrs by Western blot analysis; format: functional, cell-based; details: dose 0.3-3 µmol/L
[9] = target: Macrophage-stimulating protein receptor (Homo sapiens) (UniProt Q04912); assay: Inhibition of recombinant human GST-tagged MST1R (983-1400 residues) expressed in insect cells at 2 uM using Tyr 06 as substrate measured after 1 hr by Z'-LYTE assay relative to control; details: Insect cell
Sequence of Macrophage-stimulating protein receptor (Homo sapiens) (Q04912 25-304 limits assumed): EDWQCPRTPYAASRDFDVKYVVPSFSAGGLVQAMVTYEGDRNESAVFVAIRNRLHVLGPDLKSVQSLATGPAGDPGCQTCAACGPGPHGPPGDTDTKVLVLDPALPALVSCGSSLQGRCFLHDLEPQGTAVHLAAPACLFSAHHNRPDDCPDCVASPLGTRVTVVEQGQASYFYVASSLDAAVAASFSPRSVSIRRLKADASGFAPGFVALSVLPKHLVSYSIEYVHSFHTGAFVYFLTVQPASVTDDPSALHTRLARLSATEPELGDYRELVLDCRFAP
Sequence of Macrophage-stimulating protein receptor (Homo sapiens) (Q04912 310-1400 limits assumed): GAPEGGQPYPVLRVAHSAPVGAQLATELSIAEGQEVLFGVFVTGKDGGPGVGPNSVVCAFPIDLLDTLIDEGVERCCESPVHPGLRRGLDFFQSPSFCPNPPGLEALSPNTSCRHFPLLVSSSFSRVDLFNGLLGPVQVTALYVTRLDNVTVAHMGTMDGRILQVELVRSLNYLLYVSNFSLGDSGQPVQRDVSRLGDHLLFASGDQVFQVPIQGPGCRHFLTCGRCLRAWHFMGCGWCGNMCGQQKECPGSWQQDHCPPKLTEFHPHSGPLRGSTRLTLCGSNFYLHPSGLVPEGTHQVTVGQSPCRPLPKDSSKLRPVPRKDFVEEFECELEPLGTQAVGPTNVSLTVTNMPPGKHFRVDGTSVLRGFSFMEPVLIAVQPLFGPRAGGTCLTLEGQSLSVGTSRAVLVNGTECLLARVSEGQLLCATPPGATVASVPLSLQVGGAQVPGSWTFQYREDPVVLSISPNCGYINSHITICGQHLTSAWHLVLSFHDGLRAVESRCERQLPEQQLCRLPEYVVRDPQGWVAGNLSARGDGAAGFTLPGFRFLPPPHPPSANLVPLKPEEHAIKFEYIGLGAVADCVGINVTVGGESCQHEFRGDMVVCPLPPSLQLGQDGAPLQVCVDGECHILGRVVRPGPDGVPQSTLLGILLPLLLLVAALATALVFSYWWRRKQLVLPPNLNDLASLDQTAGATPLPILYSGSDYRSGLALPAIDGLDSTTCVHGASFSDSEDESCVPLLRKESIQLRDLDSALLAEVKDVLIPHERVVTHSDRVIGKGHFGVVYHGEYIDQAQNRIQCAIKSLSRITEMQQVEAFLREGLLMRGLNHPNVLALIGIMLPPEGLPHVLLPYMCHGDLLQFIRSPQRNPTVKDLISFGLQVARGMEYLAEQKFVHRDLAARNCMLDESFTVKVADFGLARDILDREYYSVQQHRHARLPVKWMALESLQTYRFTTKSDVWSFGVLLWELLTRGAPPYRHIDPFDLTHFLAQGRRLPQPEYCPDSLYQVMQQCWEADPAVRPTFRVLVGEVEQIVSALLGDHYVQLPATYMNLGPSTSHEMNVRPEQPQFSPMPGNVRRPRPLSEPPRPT

U-87 MG [10] = assay: Antitumor activity against PTEN-null human U-87MG cells xenografted in female nude mouse model assessed as tumor growth delay at 25 to 50 mg/kg, po qd administered as 5 days on/2 days off regimen for 4 cycles; format: functional, organism-based; details: U-87MG ATCC, dose 25-50 mg/kg, time 28.0 day
[11] = target: Proto-oncogene tyrosine-protein kinase ROS (Homo sapiens) (UniProt P08922); assay: Inhibition of recombinant human GST-tagged ROS1 (1883-2347 residues) expressed in insect cells at 2 uM using Tyr 01 as substrate measured after 1 hr by Z'-LYTE assay relative to control; details: Insect cell
Sequence of Proto-oncogene tyrosine-protein kinase ROS (Homo sapiens) (P08922 whole entry, the tested form may be a part): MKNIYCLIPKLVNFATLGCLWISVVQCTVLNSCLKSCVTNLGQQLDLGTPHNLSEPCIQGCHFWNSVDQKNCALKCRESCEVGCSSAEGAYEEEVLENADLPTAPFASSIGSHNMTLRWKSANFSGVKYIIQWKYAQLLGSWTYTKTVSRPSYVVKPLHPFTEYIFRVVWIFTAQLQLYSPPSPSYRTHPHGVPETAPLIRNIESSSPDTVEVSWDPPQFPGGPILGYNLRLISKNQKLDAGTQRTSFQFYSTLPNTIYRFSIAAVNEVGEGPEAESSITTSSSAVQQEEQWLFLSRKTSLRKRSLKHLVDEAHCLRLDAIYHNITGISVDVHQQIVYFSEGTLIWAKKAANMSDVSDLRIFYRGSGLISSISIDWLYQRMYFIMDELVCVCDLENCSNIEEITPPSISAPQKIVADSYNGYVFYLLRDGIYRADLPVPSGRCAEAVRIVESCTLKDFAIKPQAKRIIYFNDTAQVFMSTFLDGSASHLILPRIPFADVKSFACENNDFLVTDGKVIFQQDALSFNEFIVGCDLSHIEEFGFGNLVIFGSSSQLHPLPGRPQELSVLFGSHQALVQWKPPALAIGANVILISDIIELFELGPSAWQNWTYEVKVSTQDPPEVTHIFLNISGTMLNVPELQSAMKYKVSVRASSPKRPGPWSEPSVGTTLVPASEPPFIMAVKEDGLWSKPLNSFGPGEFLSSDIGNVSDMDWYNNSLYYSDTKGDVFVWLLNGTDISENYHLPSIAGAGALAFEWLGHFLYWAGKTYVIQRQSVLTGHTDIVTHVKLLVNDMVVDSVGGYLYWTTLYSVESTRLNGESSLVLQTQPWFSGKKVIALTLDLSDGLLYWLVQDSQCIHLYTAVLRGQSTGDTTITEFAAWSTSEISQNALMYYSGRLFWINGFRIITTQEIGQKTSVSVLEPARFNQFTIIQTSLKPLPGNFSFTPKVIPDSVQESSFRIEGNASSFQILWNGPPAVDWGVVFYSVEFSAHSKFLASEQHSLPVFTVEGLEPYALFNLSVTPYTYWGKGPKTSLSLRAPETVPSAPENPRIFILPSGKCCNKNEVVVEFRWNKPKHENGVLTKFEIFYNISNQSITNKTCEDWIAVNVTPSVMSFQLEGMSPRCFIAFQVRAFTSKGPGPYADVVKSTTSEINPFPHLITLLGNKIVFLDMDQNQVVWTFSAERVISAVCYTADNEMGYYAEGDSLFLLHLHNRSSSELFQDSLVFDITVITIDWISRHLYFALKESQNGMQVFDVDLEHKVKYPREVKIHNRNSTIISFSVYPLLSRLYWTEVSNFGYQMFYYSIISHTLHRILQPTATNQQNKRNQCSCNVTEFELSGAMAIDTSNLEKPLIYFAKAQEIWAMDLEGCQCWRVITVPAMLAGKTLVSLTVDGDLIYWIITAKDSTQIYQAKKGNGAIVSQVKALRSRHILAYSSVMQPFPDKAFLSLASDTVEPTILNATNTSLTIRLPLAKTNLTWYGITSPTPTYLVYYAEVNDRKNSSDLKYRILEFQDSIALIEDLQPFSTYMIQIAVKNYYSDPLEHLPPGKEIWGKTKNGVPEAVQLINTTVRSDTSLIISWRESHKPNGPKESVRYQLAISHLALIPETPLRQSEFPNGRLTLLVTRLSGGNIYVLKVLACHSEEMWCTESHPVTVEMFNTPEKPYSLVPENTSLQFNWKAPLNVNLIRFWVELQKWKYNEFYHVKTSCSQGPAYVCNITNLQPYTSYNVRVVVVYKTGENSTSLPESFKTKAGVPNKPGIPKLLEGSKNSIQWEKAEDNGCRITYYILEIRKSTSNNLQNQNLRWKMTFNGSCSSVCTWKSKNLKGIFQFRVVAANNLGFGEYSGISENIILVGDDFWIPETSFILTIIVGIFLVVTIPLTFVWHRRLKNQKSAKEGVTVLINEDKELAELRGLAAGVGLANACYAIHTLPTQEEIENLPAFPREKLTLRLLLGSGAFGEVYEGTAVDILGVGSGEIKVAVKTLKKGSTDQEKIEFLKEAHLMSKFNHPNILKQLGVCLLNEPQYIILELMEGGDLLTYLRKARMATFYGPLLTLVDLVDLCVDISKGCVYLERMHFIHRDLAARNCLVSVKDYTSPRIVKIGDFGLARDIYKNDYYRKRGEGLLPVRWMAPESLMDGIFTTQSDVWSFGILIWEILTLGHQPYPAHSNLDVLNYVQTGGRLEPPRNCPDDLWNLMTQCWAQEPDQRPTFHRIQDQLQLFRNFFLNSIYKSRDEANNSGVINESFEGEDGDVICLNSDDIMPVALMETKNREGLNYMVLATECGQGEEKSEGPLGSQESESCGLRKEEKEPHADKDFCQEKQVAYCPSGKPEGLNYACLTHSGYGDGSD

[12] = target: Serine/threonine-protein kinase MARK1 (Homo sapiens) (UniProt Q9P0L2); assay: Inhibition of recombinant human full length GST-tagged MARK1 expressed in baculovirus expression system at 2 uM using Ser/Thr 21 as substrate measured after 1 hr by Z'-LYTE assay relative to control
[13] = test system: Receptor-type tyrosine-protein kinase FLT3 (Homo sapiens), P36888 [D835Y]; assay: Inhibition of recombinant human His-tagged FLT3 D835Y mutant (564-958 residues) expressed in insect cells at 2 uM using Tyr 02 as substrate measured after 1 hr by Z'-LYTE assay relative to control; details: Insect cell
U-87 MG [14] = assay: Antiproliferative activity against human U-87MG cells assessed as cell growth inhibition at 10 micromol/L incubated for 3 days by MTS assay relative to control; format: functional, U-87MG ATCC; details: 72 h, dose 10 µmol/L, time 3 day
[15] = target: Ribosomal protein S6 kinase alpha-4 (Homo sapiens) (UniProt O75676); assay: Inhibition of recombinant human full length GST-tagged RPS6KA4 expressed in insect cells at 2 uM using Ser/Thr 01 as substrate measured after 1 hr by Z'-LYTE assay relative to control; details: Insect cell
HCT-116 = assay: Induction of apoptosis in human HCT-116 cells assessed as reduction in S phase at 1 micromol/L incubated for 24 hrs by FACS analysis; format: functional, cell-based; details: dose 1.0 µmol/L
PC3MM2 = assay: Antitumor activity against human PC3MM2 cells xenografted in female nude mouse model assessed as suppression in P-S6K at T389 level at 50 mg/kg, iv administered once a week and measured at least 8 hrs by immunoblot analysis; format: functional, organism-based
U-87 MG [16] = assay: Antitumor activity against human U-87MG cells assessed as reduction in lactate production at 1 micromol/L incubated for 24 hrs relative to control; format: functional, U-87MG ATCC; set-up: scale not given: the % may be the effect or the level left; details: dose 1 µmol/L, at 1 µM
[17] = target: Tyrosine-protein kinase Fer (Homo sapiens) (UniProt P16591); assay: Inhibition of recombinant human His-tagged FER (541-822 residues) expressed in baculovirus expression system at 2 uM using Tyr 05 as substrate measured after 1 hr by Z'-LYTE assay relative to control
MDA-MB-468 = assay: Induction of apoptosis in human MDA-MB-468 cells assessed as reduction in S phase at 1 micromol/L incubated for 24 hrs by FACS analysis; format: functional, cell-based; details: dose 1.0 µmol/L
[18] = target: Serine/threonine-protein kinase Sgk1 (Homo sapiens) (UniProt O00141); assay: Inhibition of recombinant human GST-tagged SGK (60-431 residues) expressed in insect cells at 2 uM using Ser/Thr 06 as substrate measured after 1 hr by Z'-LYTE assay relative to control; details: Insect cell
[19] = target: Casein kinase I isoform alpha (Homo sapiens) (UniProt P48729); assay: Inhibition of recombinant human full-length GST-tagged CSNK1A1 at 2 uM using Ser/Thr 11 as substrate measured after 1 hr by Z'-LYTE assay relative to control

CNC(=O)Nc1ccc(-c2nc(N3CC4CCC(C3)O4)c3cnn(C4CCC5(CC4)OCCO5)c3n2)cc1
inhibition [1]: 5% | inhibition [2]: 10% | inhibition [3]: 9% | inhibition [4]: -4% | Activity (A498): 83% | IC50 (MDA-MB-361): 12 nM | inhibition [5]: -3% | Activity (A549): 100% | inhibition [6]: 3% | inhibition [7]: 4% | inhibition [8]: -3% | Activity (NCI-H1975): Active | inhibition [9]: -1% | Activity (U-87 MG [10]): Active | inhibition [11]: 2% | inhibition [12]: 13% | inhibition [13]: 7% | inhibition at 10 µM (U-87 MG [14]): 100% | inhibition [15]: 1% | Activity (HCT-116): Active | Activity (PC3MM2): Active | Activity (U-87 MG [16]): 48% | inhibition [17]: 5% | Activity (MDA-MB-468): Active | inhibition [18]: -2% | inhibition [19]: 2%
